Results from ChEMBL document CHEMBL1201862, “PubChem BioAssay data set” (2004).
Calls of active or inactive are those of the source. Cut-off read from the data, not from the text of the source, for most assays here: actives have a measured EC50 and inactives only a lower limit.

Legend:
[1] = test system: INS1; experiment: beta cell apoptosis inhibitors, cytokine rescue, dose response, luminescence, retest (AID 449756); format: functional, cell-based; conditions: Rattus norvegicus;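 note: cell death triggered by IL-1 beta plus TNF-alpha plus IFN-gamma mixture; protective hits raise ATP signal compared with cytokine alone wells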
[2] = target: T1, Rac GTPase-activating protein 1 (Homo sapiens, UniProt Q9H0H5); experiment: MgcRacGAP GTPase-activating activity inhibitors, confirmation, biochemical, ADP Hunter fluorescence, primary and confirmatory (AID 624330); format: functional
T1 sequence (Q9H0H5 whole entry): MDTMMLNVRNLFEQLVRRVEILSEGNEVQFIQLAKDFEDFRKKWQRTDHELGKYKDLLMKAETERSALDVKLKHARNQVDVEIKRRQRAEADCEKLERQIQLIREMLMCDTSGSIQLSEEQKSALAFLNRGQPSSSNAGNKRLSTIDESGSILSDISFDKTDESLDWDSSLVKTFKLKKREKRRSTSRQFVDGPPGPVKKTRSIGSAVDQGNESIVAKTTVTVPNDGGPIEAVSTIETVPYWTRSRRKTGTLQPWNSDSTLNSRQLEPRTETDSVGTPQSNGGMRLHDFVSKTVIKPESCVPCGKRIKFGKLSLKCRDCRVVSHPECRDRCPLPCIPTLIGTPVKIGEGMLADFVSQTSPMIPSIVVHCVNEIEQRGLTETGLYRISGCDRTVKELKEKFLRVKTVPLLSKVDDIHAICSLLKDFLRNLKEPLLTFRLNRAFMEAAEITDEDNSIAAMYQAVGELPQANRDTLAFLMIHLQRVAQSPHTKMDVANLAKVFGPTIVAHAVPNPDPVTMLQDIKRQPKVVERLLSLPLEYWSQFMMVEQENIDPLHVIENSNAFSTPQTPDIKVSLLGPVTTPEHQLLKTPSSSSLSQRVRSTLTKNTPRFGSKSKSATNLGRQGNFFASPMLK

[3] = target: T2, Streptokinase A (Streptococcus pyogenes serotype M1, UniProt P10520); experiment: S. pyogenes streptokinase expression inhibitors, potency, dose response, plasminogen activation absorbance, OD405 (AID 1914); format: functional, Streptococcus pyogenes M1 GAS;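 note: secreted streptokinase activity via plasminogen activation per viability signal from cell pellet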
T2 sequence (P10520 whole entry): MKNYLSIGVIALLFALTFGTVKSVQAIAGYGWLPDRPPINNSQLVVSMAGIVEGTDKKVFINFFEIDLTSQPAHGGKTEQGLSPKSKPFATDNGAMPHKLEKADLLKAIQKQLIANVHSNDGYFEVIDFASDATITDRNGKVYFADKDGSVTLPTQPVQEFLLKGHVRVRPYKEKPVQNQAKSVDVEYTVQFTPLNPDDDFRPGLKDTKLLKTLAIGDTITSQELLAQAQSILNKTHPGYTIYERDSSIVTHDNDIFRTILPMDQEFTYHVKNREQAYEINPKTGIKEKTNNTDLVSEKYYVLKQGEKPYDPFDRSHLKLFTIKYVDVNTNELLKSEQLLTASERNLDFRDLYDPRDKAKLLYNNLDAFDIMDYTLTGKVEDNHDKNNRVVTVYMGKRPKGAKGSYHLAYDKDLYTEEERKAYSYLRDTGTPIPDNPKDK

[4] = test system: Streptococcus sp. 'group A'; experiment: growth inhibition of control SK(-) GAS strain, dose response, counter-screen for streptokinase expression inhibitor project, luminescence, kanamycin, BacTiterGlo, confirmation (AID 1900); format: functional, organism-based
[5] = test system: Streptococcus; experiment: Group A Streptococcus viability loss, dose response, counter-screen for streptokinase expression inhibitor project, luminescence, BacTiterGlo (AID 1915); format: functional, organism-based;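 note: potency for reduction of bacterial viability or growth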
[6] = Luminescence Cell-Based Dose Retest to Confirm Inhibitors of Cancer Stem Cells. [Related pubchem assays (depositor defined):AID2717, AID2721]; format: functional; conditions: Homo sapiens
[7] = inhibitors of intracellular T. cruzi replication, confirmation, NIH3T3 host cells, beta-gal luminescence (AID 2044); format: functional, cell-based;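 note: intracellular parasites grown in NIH/3T3 mouse fibroblasts as host cells; luminescent beta-galactosidase reporter signal from transgenic T. cruzi replicating inside host cells; inhibitors lower the luminescence signal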
[8] = cytotoxicity toward NIH3T3 fibroblasts, dose response, counter-screen, cell-based, ATP luminescence, mouse fibroblasts (AID 2010); format: functional;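 note: cells exposed to compound for about 90 hours before reading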
[9] = target: Paired box protein Pax-8 (Homo sapiens, UniProt Q06710); experiment: inhibitors of PAX8-driven TPO luciferase reporter, dose response, RMG-I cells, cherry-pick (AID 687027); format: functional, cell-based;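 note: luciferase reporter driven by Pax8 target thyroperoxidase promoter measured by SteadyGlo luminescence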
Chain of Paired box protein Pax-8 (Q06710 whole entry): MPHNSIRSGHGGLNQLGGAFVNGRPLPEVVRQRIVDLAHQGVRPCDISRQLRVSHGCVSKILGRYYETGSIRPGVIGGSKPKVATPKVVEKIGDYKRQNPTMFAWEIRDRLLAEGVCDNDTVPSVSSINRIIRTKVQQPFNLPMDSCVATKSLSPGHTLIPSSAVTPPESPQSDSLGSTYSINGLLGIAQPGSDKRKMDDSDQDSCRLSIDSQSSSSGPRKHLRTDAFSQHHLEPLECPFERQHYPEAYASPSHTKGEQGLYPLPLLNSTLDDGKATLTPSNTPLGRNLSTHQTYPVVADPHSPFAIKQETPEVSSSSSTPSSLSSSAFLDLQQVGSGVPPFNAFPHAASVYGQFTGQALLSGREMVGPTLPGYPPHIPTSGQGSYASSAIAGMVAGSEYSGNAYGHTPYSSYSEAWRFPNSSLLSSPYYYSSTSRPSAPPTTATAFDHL

O=C(COC(=O)Cn1cnc2ccccc2c1=O)Nc1ccc2c(c1)OCO2
AC50 [1]: > 260 µM (inactive)

CCOc1cccc2cc(C(=O)Oc3ccc(OC)cc3)c(=O)oc12
IC50 [2]: 52.5 µM (active)

CCCSc1nsc(NC(=O)Nc2ccc(F)cc2F)n1
EC50 [3]: 54.8 µM (inconclusive) | EC50 [4]: 17.5 µM (active) | EC50 [5]: 34.2 µM (active) | AC50 [6]: 2.95 µM (active) | AC50 [1]: 6.57 µM (active)

Nc1c(C(=O)c2ccccc2)sc(Nc2ccccc2)c1S(=O)(=O)c1ccccc1
EC50 [7]: 1.47 µM (active) | EC50 [8]: > 60 µM (not active)

c1ccc(-c2nc(N3CCN(c4ccccc4)CC3)nc(-n3ccnc3)n2)cc1
EC50 [7]: 3.53 µM (active) | EC50 [8]: > 60 µM (not active)

O=C(NC(=S)Nc1cccc(Cl)c1N1CCCCC1)c1ccc2c(c1)OCCO2
EC50 [3]: 48 µM (active) | EC50 [4]: 80.4 µM (active) | EC50 [5]: > 150 µM (not active) | AC50 [6]: 0.707 µM (active)

CCOc1cc(/C=C2\SC(N)=NC2=O)ccc1O
IC50 [2]: 47 µM (active)

CC(C)(C)c1ccc(NC(=O)Cn2cnc3cc([N+](=O)[O-])ccc3c2=O)cc1
EC50 [7]: 1 µM (active) | EC50 [8]: 22.1 µM (active)

Cc1cccc(OCC(=O)Nc2ccccc2N2CCCCC2)c1C
EC50 [3]: 5.39 µM (active) | EC50 [4]: 9.25 µM (active) | EC50 [5]: 13.4 µM (active)

CC12CCC(C(=O)NNC(=O)c3ccccc3)(OC1=O)C2(C)C (configuration not stated)
EC50 [3]: > 150 µM (not active) | EC50 [4]: > 150 µM (not active) | EC50 [5]: > 150 µM (not active)

COc1ccccc1OCC#CCN1CCCC(C)C1 (configuration not stated)
IC50 [2]: 182 µM (active)

Cc1ccc(-n2cc(CN3CCC(CO)(Cc4cccc(C(F)(F)F)c4)CC3)cn2)cc1
EC50 [7]: 0.896 µM (active) | EC50 [8]: > 60 µM (not active)

Cc1cc(C)cc(NC(=O)C(NCCN2CCOCC2)c2ccccc2)c1 (configuration not stated)
IC50 [2]: 48.4 µM (active)

O=S(=O)(Nc1ccc(O)c(Sc2nc3ccccc3s2)c1)c1cccc2ccccc12
EC50 [3]: > 150 µM (not active) | EC50 [4]: 4.05 µM (active) | EC50 [5]: 7.08 µM (active) | AC50 [6]: 6.45 µM (active)

CC(C)Cc1nc2oc3c(Cl)ncnc3c2c2c1CCCC2
AC50 [6]: 3.3 µM (active)

Cc1ccc(-c2nnn(CC(=O)N3c4ccccc4CCc4ccccc43)n2)cc1
EC50 [7]: 3.26 µM (active) | EC50 [8]: > 60 µM (not active)

CCOc1ccc(CN2CCN(Cc3cccc4c3OCO4)CC2CCO)cc1 (configuration not stated)
EC50 [7]: 0.208 µM (active) | EC50 [8]: > 60 µM (not active)

CS(=O)(=O)c1ccc2nc(NC(=O)c3ccc(NS(=O)(=O)c4ccc(F)c(F)c4)cc3)sc2c1
EC50 [4]: 0.318 µM (active) | EC50 [5]: 5.61 µM (active)

Cc1ccc(C)c(S(=O)(=O)N2CCN(CC(=O)NC(=O)NCc3ccccc3)CC2)c1
EC50 [7]: 0.72 µM (active) | EC50 [8]: > 60 µM (not active)

Cc1ccc(C(c2nnnn2Cc2ccccc2)N2CC=C(c3ccc(F)cc3)CC2)cc1 (configuration not stated)
EC50 [7]: 1.95 µM (active) | EC50 [8]: 20.8 µM (active)

Cc1ccc(NC(S)=NN=C(S)Nc2cccc(C(F)(F)F)c2)cc1
EC50 [3]: > 150 µM (not active) | EC50 [4]: 5.24 µM (active) | EC50 [5]: 110 µM (active)

O=C(COC(=O)c1ccccc1Br)Nc1nnc(-c2ccccc2)o1
EC50 [3]: > 150 µM (not active) | EC50 [4]: 0.834 µM (active) | EC50 [5]: 19.2 µM (active)

Cc1ccc(CN2CCC(Oc3cccc(C(=O)N(C)CCN(C)C)c3)CC2)cc1C
EC50 [7]: < 0.1 µM (active) | EC50 [8]: 26 µM (active)

COc1ccc(/C=C/C(=O)NC(=S)Nc2ccccc2C(=O)NC2CCCCC2)cc1
AC50 [1]: 13.9 µM (active)

Cc1cnccc1CN(C)Cc1cn(C)nc1-c1ccc(Oc2ccccc2)cc1
EC50 [7]: 1.76 µM (active) | EC50 [8]: > 30 µM (not active)

Cc1cccc(C)c1OCCCCN1CCNCC1
IC50 [2]: 122 µM (active)

C=CCc1cc(Cl)ccc1OCCn1ccnc1
IC50 [2]: 139 µM (active)

Cc1c(C(=O)NN=C(S)NCc2ccc(Cl)cc2)oc2ccccc12
EC50 [4]: 7.12 µM (active) | EC50 [5]: > 150 µM (not active)

Cc1c(C(=O)NNC(=S)NCc2ccc(Cl)cc2)oc2ccccc12
EC50 [3]: 22.5 µM (active)

COc1cc2c(cc1OC)C1(CCCC1)C(N)=C2C#N
IC50 [2]: 38 µM (active)

CCOC(=O)c1c(-c2cccs2)csc1NC(=O)c1ccncc1
EC50 [7]: 2.14 µM (active) | EC50 [8]: > 30 µM (not active)

Nc1nc(Nc2cccc(Cl)c2)nc(NCc2ccco2)c1[N+](=O)[O-]
EC50 [3]: > 150 µM (not active) | EC50 [4]: 7.28 µM (active) | EC50 [5]: 16.4 µM (active)

Cc1ccc2nc(-c3ccc(NC(=O)CNC4CC4)cc3)sc2c1
EC50 [3]: > 150 µM (not active) | EC50 [4]: 14.4 µM (active) | EC50 [5]: > 150 µM (not active)

O=C1CSC(c2cccnc2)N1CC1CC1 (configuration not stated)
AC50 [1]: > 260 µM (inactive)

CC(=O)c1c(Nc2ccc3c(c2)OCCO3)oc(C)cc1=O
IC50 [2]: 54 µM (active)

COc1ccc(S(=O)(=O)N[C@@H](C)C(=O)OCC(=O)Nc2cc3oc4ccccc4c3cc2OC)cc1
EC50 [3]: > 150 µM (not active) | EC50 [4]: 1.39 µM (active) | EC50 [5]: 16.4 µM (active)

CCOC(=O)c1c(NC(=O)c2cccs2)sc2c1CCN(C(=O)OCC)C2
EC50 [4]: 12 µM (active)

COc1ccc(OC)c(C2C=C(C34CC5CC(CC(C5)C3)C4)N=C(S)N2)c1 (configuration not stated)
EC50 [7]: 1.15 µM (active) | EC50 [8]: > 30 µM (not active) | EC50 [3]: 14.7 µM (active) | EC50 [4]: 11.2 µM (active) | EC50 [5]: > 150 µM (not active)

COC(=O)c1ccc2[nH]c3cccc(/C(=C/c4ccccc4)c4ccccc4)c3c2c1
EC50 [3]: 1.43 µM (active) | EC50 [4]: 0.602 µM (active) | EC50 [5]: 3.93 µM (active) | AC50 [1]: 11.2 µM (active)

COc1ccc(N2CCN(C(C)C(=O)N3CCCC3)CC2)cc1 (configuration not stated)
IC50 [2]: 72.4 µM (active)

NC(=O)c1cc([N+](=O)[O-])ccc1NCc1ccc(O)cc1
AC50 [6]: 2.92 µM (active)

C/C(=N\Nc1nc2ccccc2[nH]1)c1ccc(Cl)s1
IC50 [2]: 42 µM (active)

O=C(NN=Cc1ccc(O)cc1)c1ccccc1NS(=O)(=O)c1cccs1
IC50 [2]: 74.4 µM (active)

Cc1ccn2c(NCc3ccccc3)c(-c3cccc(SC4CCCCC4)c3)nc2c1
AC50 [6]: 4.44 µM (active)

C[C@@H]1CCCCO[C@H](CN(C)C(=O)NC2CCCCC2)[C@@H](C)CN([C@@H](C)CO)C(=O)c2cc(NC(=O)Nc3ccc(C(F)(F)F)cc3)ccc2O1
AC50 [9]: 4.98 µM (active)

C[C@@H]1CCCCO[C@@H](CN(C)Cc2ccc(Cl)c(Cl)c2)[C@H](C)CN([C@H](C)CO)C(=O)c2cc(NS(=O)(=O)c3ccccc3)ccc2O1
AC50 [9]: 7.95 µM (active)

COc1ccc(S(=O)(=O)N2CCCCN3[C@H](C2)[C@H](c2ccc(C#CC(C)C)cc2)[C@@H]3CO)cc1
AC50 [9]: 9.44 µM (active)

C[C@@H]1CN([C@@H](C)CO)C(=O)c2cc(N(C)C)ccc2O[C@@H]1CN(C)Cc1ccc(Oc2ccccc2)cc1
AC50 [9]: 19.1 µM (active)

C[C@@H]1CCCCO[C@H](CN(C)Cc2ccc(C(F)(F)F)cc2)[C@H](C)CN([C@H](C)CO)C(=O)c2cc(NS(=O)(=O)c3cccs3)ccc2O1
AC50 [9]: 11.5 µM (active)

C=CCc1cc(/C=N/c2ccc(N3CCOCC3)cc2)cc(OCC)c1O
IC50 [2]: 13.1 µM (active)

C/C(=N\Nc1cc(C(F)(F)F)ccc1Cl)c1ccccc1O
AC50 [6]: 83.1 µM (active)

COc1cccc(CC2(CO)CCCN(Cc3sc(N4CCCC4)nc3Cl)C2)c1 (configuration not stated)
EC50 [7]: 1.74 µM (active) | EC50 [8]: > 30 µM (not active)
